We go through two substances from patent publication US10954305B2 (Immunomedics, Inc., priority 2016, dated 2021).

For data set [1], the target named is T1, recombinant mouse Trop-2 (Mus musculus, UniProt Q8BGV3).
T1 construct: purchased Sino Biological, Inc. 50922-MO8H
T1 sequence (Q8BGV3 25-317): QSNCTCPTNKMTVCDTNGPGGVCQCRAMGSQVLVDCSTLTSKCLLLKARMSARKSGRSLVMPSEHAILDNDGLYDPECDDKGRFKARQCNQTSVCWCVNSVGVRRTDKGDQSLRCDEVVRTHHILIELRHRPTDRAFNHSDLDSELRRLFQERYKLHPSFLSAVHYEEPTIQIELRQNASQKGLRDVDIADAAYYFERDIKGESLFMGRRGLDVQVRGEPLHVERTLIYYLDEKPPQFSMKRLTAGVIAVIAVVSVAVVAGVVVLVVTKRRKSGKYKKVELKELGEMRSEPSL
Put plainly: Trop-2 ELISA. In kind it is binding. The protocol:
(§1) Recombinant human Trop-2 with a His-tag (Sino Biological, Inc., Bejing, China; Cat #10428-H09H) and recombinant mouse Trop-2 with a His-Tag (Sino Biological, Inc., Cat #50922-MO8H) were plated onto Ni-NTA Hissorb strips (Qiagen GmbH Cat #35023) at 1 μg for 1 h at room temperature. The plate was washed four times with PBS-Tween (0.05%) wash buffer. Serial dilutions of hRS7 were made in 1% BSA-PBS dilution buffer to a test range of 0.1 ng/mL to 10 μg/mL. The plates were then incubated for 2 h at room temperature before being washed four times followed by the addition of a peroxidase conjugated secondary antibody (goat anti-human, Fc fragment specific; Jackson Immunoresearch Cat #109-036-098). After a 45-min incubation, the plate was washed and a substrate solution (o-phenylenediamine dihydrochloride (OPD); Sigma, Cat #P828) added to all the wells. Plates were incubated in the dark for 15 min before the reaction was stopped with 4N sulfuric acid. The plates were read at 450 nm on Biotek ELX808 plate reader. Data were analyzed and graphed using Prism GraphPad Software (v4.03) (Advanced Graphics Software, Inc.; Encinitas, Calif.).

In data set [2] the target is T2, recombinant human Trop-2 (Homo sapiens, UniProt P09758).
T2 construct: purchased Sino Biological, Inc. 10428-H09H
T2 sequence (P09758 27-323): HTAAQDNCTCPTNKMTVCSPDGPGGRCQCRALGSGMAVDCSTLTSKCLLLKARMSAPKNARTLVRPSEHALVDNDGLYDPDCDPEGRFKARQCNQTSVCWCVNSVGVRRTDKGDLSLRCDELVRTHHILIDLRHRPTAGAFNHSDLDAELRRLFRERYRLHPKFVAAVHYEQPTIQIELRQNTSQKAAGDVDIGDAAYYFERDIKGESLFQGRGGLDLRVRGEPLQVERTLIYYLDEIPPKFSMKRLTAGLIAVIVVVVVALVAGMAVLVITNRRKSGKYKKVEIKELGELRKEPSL
The experiment in a line: Trop-2 ELISA. In kind it is binding. As to the method: as §1

Data set [3] deals with Capan-1 tumors. Put plainly: CL2 vs CL2A linker, Capan-1 xenograft. As to conditions: 0.2 mg/kg SN-38 twice weekly × 4 weeks. It is filed as in vivo, mice. The protocol: FIG. 4C. […] Capan-1 mice (N=10) were treated with 0.2 mg/kg ADC and tumors measured weekly.
The test system of data set [4] is diverse metastatic solid cancers. The experiment in a line: Phase I/II clinical trial of IMMU-132, all tumor types. It is filed as in vivo, human. The protocol: Dose escalation followed a standard 3+3 scheme with 4 planned dose levels and dose delay or reduction allowed. Twenty-five patients (52-60 years old, 3 median prior chemotherapy regimens) were treated at dose levels of 8 (N=7), 10 (N=6), 12 (N=9), and 18 (N=3) mg/kg. […] Lower doses were acceptable for extended treatment with no treatment-related grade 4 toxicities and grade 3 toxicities limited to fatigue (N=3), neutropenia (N=2), diarrhea (N=1), and leukopenia (N=1). […] No pre-selection of patients based on tumor Trop-2 expression was undertaken.
The trial was designed as a standard 3+3 Phase I design, starting at a dose of 8 mg/kg per injection, with dosages given weekly for 2 weeks in a 3-week treatment cycle.
Prior to the start of each infusion, most patients received acetaminophen, anti-histamines (H1 and H2 blockers), and dexamethasone. Prophylactic use of antiemetics or anti-diarrheal medications was prohibited. Therapy consisted of 2 consecutive doses given on days 1 and 8 of a 3-week treatment cycle, with the intent to allow patients to continue treatment for up to 8 cycles (i.e., 16 treatments) unless there was unacceptable toxicity or progression. Patients showing disease stabilization or response after 8 cycles could continue treatments.

Data set [5] in a line: storage stability of lyophilized IMMU-132. In kind it is physicochemical.
For data set [6], the system named is triple-negative breast cancer. The experiment in a line: Phase I/II clinical trial of IMMU-132, TNBC. In kind it is in vivo, human. An excerpt:
[…] […] Previous treatments included cyclophosphamide, doxorubicin, carboplatin, gemcitabine, capecitabine, eribulin, cisplatinum, anastrozole, vinorelbine, bevacizumab and tamoxifen. […] The median time to progression in this heavily pretreated population of TNBC patients was 9.4 months, with a range of 2.9 to 14.2 months to date. However, 72% of patients in the study were still ongoing treatment.

In data set [7] the test system is NCI-N87 human gastric tumors. Put plainly: NCI-N87 xenograft therapy (FIG. 23). To be noted: 0.35 mg twice weekly for four weeks.
Data set [8] concerns small cell lung cancer.
For data set [9], the system named is stage IV metastatic gastric cancer. The experiment in a line: therapy of a gastric cancer patient. It is filed as in vivo, human. To be noted: after another 5 courses.
The subject of data set [10] is non-small cell lung cancer. The experiment in a line: Phase I/II clinical trial of IMMU-132, NSCLC. It is filed as in vivo, human. As to the method: Out of 29 patients, there were 8 PR and 13 SD. […] The median time to progression was […], with a range from 1.8 to 15.5+ months and 47% of patients still undergoing treatment. Median PFS was 3.4 months at 8 mg/kg and 3.8 months at 10 mg/kg. However, studies are still ongoing and the median progression-free survival numbers are likely to improve.

Data set [11] deals with MDA-MB-468 TNBC tumors. Put plainly: MDA-MB-468 TNBC xenograft therapy. In kind it is in vivo, nude mice. As to conditions: one animal each, tumors progressed after irinotecan.

pKd: −log10 of the molar value. Like-named read-outs stand apart in the source and are kept apart here. A value given as a limit tells only on which side of the number the result lay.

Take hRS7 IgG: the cross-reactivity entry in data set [1] is listed as “no cross-reactivity with the murine Trop-2”. The pKd in [2] was 9.52.
Turning to IMMU-132, the “mice tumor-free at end of study (day 140)” value in data set [3] was found to be 50%. Further, the “duration of maintained disease control” value in data set [4] (12 patients) is on record as 16-36 weeks. In [4] (24 assessable patients, Phase I), the long-term stable disease result is “Over 80%”. The substance further returned a disease response in [4] (48 assessable patients (excluding PDC)) of 79%. In data set [4] (48 patients), the “TTP, range” value is listed as 6.0 to 51.4 wks and the “time to progression (TTP)” value is at least 12.6 wks. Besides, in data set [4] (Phase I, 25 patients), the “patients with partial response” value is listed as 3, the “patients with progression (PD)” value is on record as 7 and the “patients with stable disease” value is reported as 15. The “responses or disease stabilization after prior topoisomerase I inhibitor” value in data set [4] (human, in vivo) was 7 of 9. In data set [4] (of 48 assessable patients), the PD amounted to 14 and the PR is on record as 7. The “stability once prepared and lyophilized” value in [5] is reported as “stable for several years”. In data set [6] (10 mg/kg), the “confirmed complete responses (CR)” value was determined as 2; the “partial responses (PR)” value is given as 13; the “time to progression, range” value is 2.9 to 14.2 months. In data set [6] (17 TNBC patients), the “clinical benefit rate (PR+SD>6 months)” value is reported as 46%. In data set [6] (of 8 assessable patients), this substance returned a PD of 2 and a PR of 2. Besides, in [7], the partial responders is reported as 6 of 7. In data set [8] (of 4 assessable patients), this substance displayed a PD of 2 and a PR of 2. Also, the PR in [8] (out of 25 assessable patients, 8 or 10 mg/kg) came out at 6. Further, the “disease reduction by RECIST at follow-up” value in [9] is given as “about 35%”. In data set [10] (of 5 assessable patients), this substance displayed a PD of 1 and a PR of 1. The substance further registered a PR in [10] (out of 29 patients, 8 or 10 mg/kg) of 8. Also, the “primary target lesion at first CT” value in [10] (person, from 5.6 cm, after 6 doses) stood at 3.2 cm. Besides, the “decrease in tumor size on re-treatment” value in data set [11] is 60%.
